Assay results: US8889874B2, “Imidazolone-chalcone derivatives as potential anticancer agent and process for the preparation thereof” (Council of Scientific and Industrial Research, priority 2010, dated 2014)
Read-outs that look alike come from different tables or passages of the source.

Key:
Format in all cases: cell-based, human
[1] = system: Melanoma cancer cell lines; assay: NCI anticancer screen, SRB assay, panel summary; settings: for GI50: Homo sapiens
Procedure, shortened: (§1)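 Sulforhodamine B protein assay read cell growth after 48 h of continuous compound exposure. Dose-response curves per cell line used at least five 10-fold-diluted concentrations, within a panel of fifty-three human lines from nine tumour types.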

[2] = system: Breast cancer cell lines; assay: NCI anticancer screen, SRB assay, panel summary; settings: Homo sapiens
Procedure, shortened: as §1

[3] = system: Non-small cell lung cancer cell lines; assay: NCI anticancer screen, SRB assay, panel summary; settings: Homo sapiens
Procedure, shortened: as §1

[4] = system: Prostate cancer cell lines; assay: NCI anticancer screen, SRB assay, panel summary
Procedure, shortened: as §1

[5] = system: CNS cancer cell lines; assay: NCI anticancer screen, SRB assay, panel summary; settings: for GI50: Homo sapiens
Procedure, shortened: as §1

[6] = system: Ovarian cancer cell lines; assay: NCI anticancer screen, SRB assay, panel summary; settings: Homo sapiens
Procedure, shortened: as §1

[7] = system: Leukemia cancer cell lines; assay: NCI anticancer screen, SRB assay, panel summary; settings: Homo sapiens
Procedure, shortened: as §1

[8] = system: Colon cancer cell lines; assay: NCI anticancer screen, SRB assay, panel summary; settings: for GI50: Homo sapiens
Procedure, shortened: as §1

[9] = system: Renal cancer cell lines; assay: NCI anticancer screen, SRB assay, panel summary; settings: Homo sapiens
Procedure, shortened: as §1

[10] = system: SW-620 (colon); assay: NCI anticancer screen, SRB assay, 48 h; settings: Homo sapiens
Procedure, shortened: as §1

[11] = system: UO-31 (renal); assay: NCI anticancer screen, SRB assay, 48 h; settings: Homo sapiens
Procedure, shortened: as §1

[12] = system: RXF 393 (renal); assay: NCI anticancer screen, SRB assay, 48 h; settings: Homo sapiens
Procedure, shortened: as §1

[13] = system: OVCAR-4 (ovarian); assay: NCI anticancer screen, SRB assay, 48 h; settings: Homo sapiens
Procedure, shortened: as §1

[14] = system: A498 (renal); assay: NCI anticancer screen, SRB assay, 48 h; settings: Homo sapiens
Procedure, shortened: as §1

[15] = system: SF-295 (CNS); assay: NCI anticancer screen, SRB assay, 48 h; settings: Homo sapiens
Procedure, shortened: as §1

[16] = system: HCT-116 (colon); assay: NCI anticancer screen, SRB assay, 48 h; settings: Homo sapiens
Procedure, shortened: as §1

[17] = system: PC-3 (prostate); assay: NCI anticancer screen, SRB assay, 48 h; settings: Homo sapiens
Procedure, shortened: as §1

[18] = system: U251 (CNS); assay: NCI anticancer screen, SRB assay, 48 h; settings: Homo sapiens
Procedure, shortened: as §1

[19] = system: NCI-H322M (non-small cell lung); assay: NCI anticancer screen, SRB assay, 48 h; settings: Homo sapiens
Procedure, shortened: as §1

[20] = system: 786-0 (renal); assay: NCI anticancer screen, SRB assay, 48 h; settings: Homo sapiens
Procedure, shortened: as §1

[21] = system: MCF7 (breast); assay: NCI anticancer screen, SRB assay, 48 h; settings: Homo sapiens
Procedure, shortened: as §1

[22] = system: MDA-MB-435 (melanoma); assay: NCI anticancer screen, SRB assay, 48 h; settings: Homo sapiens
Procedure, shortened: as §1

[23] = system: SK-MEL-5 (melanoma); assay: NCI anticancer screen, SRB assay, 48 h; settings: Homo sapiens
Procedure, shortened: as §1

[24] = system: A549/ATCC (non-small cell lung); assay: NCI anticancer screen, SRB assay, 48 h; settings: Homo sapiens
Procedure, shortened: as §1

[25] = system: SK-MEL-28 (melanoma); assay: NCI anticancer screen, SRB assay, 48 h; settings: Homo sapiens
Procedure, shortened: as §1

[26] = system: RPMI-8226 (leukemia cell line); assay: NCI anticancer screen, SRB assay, 48 h; settings: Homo sapiens
Procedure, shortened: as §1

[27] = 48 h exposure, SRB, read-out: GI50
[28] = read-out: pGI50 (-log of molar concentration causing 50% inhibition of net cell growth) (converted)

COc1cc(/C=C/C(=O)c2cccc(-n3cc(-c4ccc(Cl)cc4)[nH]c3=O)c2)ccc1O [3f, 4-(4-chlorophenyl)-1-3-[(E)-3-(4-hydroxy-3-methoxyphenyl)-2-propenoyl]phenyl-2,3-dihydro-1H-2-imidazolone]
GI50 ([1]; Melanoma panel, log of concentration in mol/L causing 50% inhibition of net cell growth, read-out: mean graph midpoint (MG_MID) of Log10 GI50 (converted)): 2820 nM | GI50 ([1]; nine melanoma cancer cell lines, exposure at least 48 hrs, read-out: GI50, range over the panel): 1630 to 8690 nM | mean graph midpoint (MG_MID) of Log10 LC50 ([1]; Melanoma panel, log of concentration leading to 50% net cell death): 4.32 | GI50 ([2]; Breast panel, log of concentration in mol/L causing 50% inhibition of net cell growth, read-out: mean graph midpoint (MG_MID) of Log10 GI50 (converted)): 3240 nM | LC50 ([2]; Breast panel, log of concentration leading to 50% net cell death, read-out: mean graph midpoint (MG_MID) of Log10 LC50 (converted)): 95500 nM | GI50 ([2]; five breast cancer cell lines, exposure at least 48 hrs, read-out: GI50, range over the panel): 2300 to 4670 nM | GI50 ([3]; Non-small cell lung panel, log of concentration in mol/L causing 50% inhibition of net cell growth, read-out: mean graph midpoint (MG_MID) of Log10 GI50 (converted)): 3550 nM | LC50 ([3]; Non-small cell lung panel, log of concentration leading to 50% net cell death, read-out: mean graph midpoint (MG_MID) of Log10 LC50 (converted)): 85100 nM | GI50 ([3]; nine non-small cell lung cancer cell lines, exposure at least 48 hrs, read-out: GI50, range over the panel): 1260 to 9610 nM | GI50 ([4]; Homo sapiens, log of concentration in mol/L causing 50% inhibition of net cell growth, read-out: mean graph midpoint (MG_MID) of Log10 GI50 (converted)): 1950 nM | LC50 ([4]; Homo sapiens, log of concentration leading to 50% net cell death, read-out: mean graph midpoint (MG_MID) of Log10 LC50 (converted)): 66100 nM | mean graph midpoint (MG_MID) of Log10 TGI ([4]; log of concentration resulting in total inhibition of net cell growth): 5.20 | mean graph midpoint (MG_MID) of Log10 LC50 ([5]; CNS panel, log of concentration leading to 50% net cell death): 4.29 | GI50 ([5]; CNS panel, log of concentration in mol/L causing 50% inhibition of net cell growth, read-out: mean graph midpoint (MG_MID) of Log10 GI50 (converted)): 3160 nM | GI50 ([5]; six CNS cancer cell lines, exposure at least 48 hrs, read-out: GI50, range over the panel): 1780 to 10500 nM | GI50 ([6]; Ovarian panel, log of concentration in mol/L causing 50% inhibition of net cell growth, read-out: mean graph midpoint (MG_MID) of Log10 GI50 (converted)): 2750 nM | LC50 ([6]; Ovarian panel, log of concentration leading to 50% net cell death, read-out: mean graph midpoint (MG_MID) of Log10 LC50 (converted)): 43700 nM | GI50 ([6]; six ovarian cancer cell lines, exposure at least 48 hrs, read-out: GI50, range over the panel): 1560 to 4640 nM | GI50 ([7]; Leukemia panel, log of concentration in mol/L causing 50% inhibition of net cell growth, read-out: mean graph midpoint (MG_MID) of Log10 GI50 (converted)): 1380 nM | LC50 ([7]; Leukemia panel, log of concentration leading to 50% net cell death, read-out: mean graph midpoint (MG_MID) of Log10 LC50 (converted)): 55000 nM | GI50 ([7]; two leukemia cancer cell lines (RPMI-8226 and K-562), exposure at least 48 hrs, read-out: GI50, range over the panel): 1330 to 1420 nM | mean graph midpoint (MG_MID) of Log10 LC50 ([8]; Colon panel, log of concentration leading to 50% net cell death): 4.53 | GI50 ([8]; Colon panel, log of concentration in mol/L causing 50% inhibition of net cell growth, read-out: mean graph midpoint (MG_MID) of Log10 GI50 (converted)): 2040 nM | GI50 ([8]; seven colon cancer cell lines, exposure at least 48 hrs, read-out: GI50, range over the panel): 1460 to 3400 nM | GI50 ([9]; Renal panel, log of concentration in mol/L causing 50% inhibition of net cell growth, read-out: mean graph midpoint (MG_MID) of Log10 GI50 (converted)): 2950 nM | LC50 ([9]; Renal panel, log of concentration leading to 50% net cell death, read-out: mean graph midpoint (MG_MID) of Log10 LC50 (converted)): 63100 nM | GI50 ([9]; eight renal cancer cell lines, exposure at least 48 hrs, read-out: GI50, range over the panel): 1670 to 6400 nM | GI50 [10, 27]: 2000 nM | GI50 [10, 28]: 2000 nM | GI50 [11, 27]: 1670 nM | GI50 [11, 28]: 1660 nM | GI50 ([12]; RXF 393, 48 h exposure, SRB, read-out: GI50): 6400 nM | GI50 ([12]; RXF-393, read-out: pGI50 (-log of molar concentration causing 50% inhibition of net cell growth) (converted)): 6460 nM | GI50 [13, 27]: 4640 nM | GI50 [13, 28]: 4680 nM | GI50 [14, 27]: 2820 nM | GI50 [14, 28]: 2820 nM | GI50 [15, 27]: 10500 nM | GI50 [15, 28]: 10500 nM | GI50 [16, 27]: 1460 nM | GI50 [16, 28]: 1450 nM | GI50 ([17]; PC-3, read-out: pGI50 (-log of molar concentration causing 50% inhibition of net cell growth) (converted)): 1950 nM | GI50 ([17]; one prostate cancer cell line (PC-3), exposure at least 48 hrs, read-out: GI50): 1950 nM | GI50 ([18]; U-251, 48 h exposure, SRB, read-out: GI50): 2230 nM | GI50 ([18]; U-251, read-out: pGI50 (-log of molar concentration causing 50% inhibition of net cell growth) (converted)): 2240 nM | GI50 [19, 27]: 4580 nM | GI50 [19, 28]: 4570 nM | GI50 [20, 27]: 2070 nM | GI50 [20, 28]: 2090 nM | GI50 [21, 27]: 2300 nM | GI50 [21, 28]: 2290 nM | GI50 [22, 27]: 2250 nM | GI50 [22, 28]: 2240 nM | GI50 [23, 27]: 1800 nM | GI50 [23, 28]: 1820 nM | GI50 [24, 27]: 6780 nM | GI50 [24, 28]: 6760 nM | GI50 [25, 27]: 2060 nM | GI50 [25, 28]: 2040 nM | GI50 [26, 27]: 1330 nM | GI50 [26, 28]: 1320 nM
